Columns and labels:
Type in all cases: functional
Parameters in all cases: dose or concentration left out as unconfirmed
Pyricularia oryzae = assay: Fungicidal activity against Magnaporthe oryzae assessed as inhibition of mycelial growth at 25 mg/ml measured after 48 hr
[1] = tested on: Pseudoperonospora cubensis; assay: Fungicidal activity against Pseudoperonospora cubensis grown on compound pre-treated cucumber leaves assessed as inhibition of fungal growth at 6.25 mg/ml measured 5 days post compound treatment
Colletotrichum lagenaria = assay: Fungicidal activity against Colletotrichum lagenaria infected in compound pre-treated cucumber plants assessed as inhibition of fungal growth at 6.25 mg/ml measured 3 days post compound treatment
Blumeria graminis = assay: Fungicidal activity against Blumeria graminis grown on compound pre-treated wheat seedlings assessed as inhibition of fungal growth at 6.25 mg/ml measured 7 days post fungal inoculation
Botrytis cinerea = assay: Fungicidal activity against Botryotinia fuckeliana assessed as inhibition of mycelial growth at 25 mg/ml measured after 48 hr
Phytophthora infestans = assay: Fungicidal activity against Phytophthora infestans assessed as inhibition of mycelial growth at 25 mg/ml measured after 48 hr

For `CO/C=C(/C(=O)OC)c1ccccc1CO/N=C(C)/C=C/c1ccc(Cl)cc1`, the inhibition (Pyricularia oryzae) was 100%, the inhibition [1] was 100% and the inhibition (Colletotrichum lagenaria) was 50%. The inhibition (Blumeria graminis) was 62.5% and the inhibition (Botrytis cinerea) was 80%.
Work on `CO/N=C(/C(=O)OC)c1ccccc1CO/N=C(\C)C1=Cc2ccc(C)cc2C1` yielded an inhibition (Pyricularia oryzae) of 100%, an inhibition [1] of 100% and an inhibition (Colletotrichum lagenaria) of 90%. For the same compound, the inhibition (Phytophthora infestans) was 100%, the inhibition (Blumeria graminis) was 100% and the inhibition (Botrytis cinerea) was 80%.
With `CNC(=O)/C(=N/OC)c1ccccc1CO/N=C(\C)C1=Cc2cc(F)ccc2C1` the inhibition (Pyricularia oryzae) was 100%, the inhibition [1] was 30% and the inhibition (Colletotrichum lagenaria) was 30%. For the same compound, the inhibition (Phytophthora infestans) was 80%, the inhibition (Blumeria graminis) was 100% and the inhibition (Botrytis cinerea) was 80%.
`CO/N=C(\C(=O)OC)c1ccccc1CO/N=C(\C)c1cccc(C(F)(F)F)c1` gave an inhibition (Pyricularia oryzae) of 100%, an inhibition [1] of 50% and an inhibition (Colletotrichum lagenaria) of 60%. The inhibition (Blumeria graminis) was 100% and the inhibition (Botrytis cinerea) was 100%.
Work on `CO/N=C(/C(=O)OC)c1ccccc1CO/N=C(\C)C1=Cc2cc(Cl)ccc2C1` yielded an inhibition (Pyricularia oryzae) of 100%, an inhibition [1] of 95% and an inhibition (Colletotrichum lagenaria) of 90%. It also gave an inhibition (Phytophthora infestans) of 100%, an inhibition (Blumeria graminis) of 95% and an inhibition (Botrytis cinerea) of 80%.
With `CO/C=C(/C(=O)OC)c1ccccc1CO/N=C(\C)C1=Cc2ccc(F)cc2C1` the inhibition (Pyricularia oryzae) was 100%, the inhibition (Colletotrichum lagenaria) was 60% and the inhibition (Phytophthora infestans) was 100%. It also gave an inhibition (Blumeria graminis) of 100% and an inhibition (Botrytis cinerea) of 50%.
`CNC(=O)/C(=N/OC)c1ccccc1CO/N=C(\C)C1=Cc2ccccc2C1` was tested, and the inhibition (Pyricularia oryzae) was 100%, the inhibition [1] was 95% and the inhibition (Colletotrichum lagenaria) was 95%. The inhibition (Phytophthora infestans) was 100%, the inhibition (Blumeria graminis) was 100% and the inhibition (Botrytis cinerea) was 100%.
`CNC(=O)/C(=N/OC)c1ccccc1CO/N=C(\C)C1=Cc2ccc(C)cc2C1` showed an inhibition (Pyricularia oryzae) of 100%, an inhibition [1] of 100% and an inhibition (Colletotrichum lagenaria) of 100%. For the same compound, the inhibition (Phytophthora infestans) was 100%, the inhibition (Blumeria graminis) was 100% and the inhibition (Botrytis cinerea) was 100%.
`CO/C=C(/C(=O)OC)c1ccccc1CO/N=C(\C)C1=Cc2ccc(C)cc2C1` gave an inhibition (Pyricularia oryzae) of 100%, an inhibition [1] of 80% and an inhibition (Colletotrichum lagenaria) of 70%. For the same compound, the inhibition (Phytophthora infestans) was 100%, the inhibition (Blumeria graminis) was 100% and the inhibition (Botrytis cinerea) was 80%.
Work on `CNC(=O)/C(=N/OC)c1ccccc1CO/N=C(\C)C1=Cc2cc(Cl)ccc2C1` yielded an inhibition (Pyricularia oryzae) of 80%, an inhibition [1] of 90% and an inhibition (Colletotrichum lagenaria) of 98%. It also gave an inhibition (Phytophthora infestans) of 80%, an inhibition (Blumeria graminis) of 100% and an inhibition (Botrytis cinerea) of 100%.
`CO/N=C(/C(=O)OC)c1ccccc1CO/N=C(\C)C1=Cc2cc(F)ccc2C1` showed an inhibition (Pyricularia oryzae) of 50%, an inhibition [1] of 70% and an inhibition (Colletotrichum lagenaria) of 40%. The inhibition (Phytophthora infestans) was 100%, the inhibition (Blumeria graminis) was 100% and the inhibition (Botrytis cinerea) was 80%.
`CO/N=C(/C(=O)OC)c1ccccc1CO/N=C(\C)C1=Cc2ccc(Cl)cc2C1` gave an inhibition (Pyricularia oryzae) of 100%, an inhibition [1] of 50% and an inhibition (Colletotrichum lagenaria) of 65%. It also gave an inhibition (Phytophthora infestans) of 100%, an inhibition (Blumeria graminis) of 90% and an inhibition (Botrytis cinerea) of 80%.
`CO/C=C(/C(=O)OC)c1ccccc1CO/N=C(\C)C1=Cc2ccc(Cl)cc2C1` showed an inhibition (Pyricularia oryzae) of 50%, an inhibition [1] of 40% and an inhibition (Colletotrichum lagenaria) of 60%. For the same compound, the inhibition (Phytophthora infestans) was 100%, the inhibition (Blumeria graminis) was 100% and the inhibition (Botrytis cinerea) was 80%.
`CO/C=C(/C(=O)OC)c1ccccc1CO/N=C(\C)C1=Cc2cc(Cl)ccc2C1` gave an inhibition (Pyricularia oryzae) of 100%, an inhibition [1] of 30% and an inhibition (Colletotrichum lagenaria) of 30%. For the same compound, the inhibition (Phytophthora infestans) was 100%, the inhibition (Blumeria graminis) was 100% and the inhibition (Botrytis cinerea) was 80%.
In the case of `CO/N=C(/C(=O)OC)c1ccccc1CO/N=C(\C)C1=Cc2c(Cl)cccc2C1`, the inhibition (Pyricularia oryzae) was 100%, the inhibition [1] was 90% and the inhibition (Colletotrichum lagenaria) was 100%. For the same compound, the inhibition (Phytophthora infestans) was 100%, the inhibition (Blumeria graminis) was 100% and the inhibition (Botrytis cinerea) was 100%.
`CO/N=C(/C(=O)OC)c1ccccc1CO/N=C(\C)C1=Cc2ccccc2C1` showed an inhibition (Pyricularia oryzae) of 100%, an inhibition [1] of 30% and an inhibition (Colletotrichum lagenaria) of 30%. The inhibition (Phytophthora infestans) was 100%, the inhibition (Blumeria graminis) was 10% and the inhibition (Botrytis cinerea) was 80%.
`CNC(=O)/C(=N/OC)c1ccccc1CO/N=C(\C)C1=Cc2ccc(Cl)cc2C1` gave an inhibition (Pyricularia oryzae) of 100%, an inhibition [1] of 85% and an inhibition (Colletotrichum lagenaria) of 100%. It also gave an inhibition (Phytophthora infestans) of 100%, an inhibition (Blumeria graminis) of 100% and an inhibition (Botrytis cinerea) of 100%.
`CNC(=O)/C(=N/OC)c1ccccc1CO/N=C(\C)C1=Cc2c(Cl)cccc2C1` gave an inhibition (Pyricularia oryzae) of 100%, an inhibition [1] of 100% and an inhibition (Colletotrichum lagenaria) of 80%. The inhibition (Phytophthora infestans) was 100%, the inhibition (Blumeria graminis) was 100% and the inhibition (Botrytis cinerea) was 80%.
`CO/N=C(/C(=O)OC)c1ccccc1CO/N=C(\C)C1=Cc2ccc(F)cc2C1` was tested, and the inhibition (Pyricularia oryzae) was 100%, the inhibition [1] was 85% and the inhibition (Colletotrichum lagenaria) was 40%. For the same compound, the inhibition (Phytophthora infestans) was 100%, the inhibition (Blumeria graminis) was 85% and the inhibition (Botrytis cinerea) was 50%.
Compound `CO/C=C(/C(=O)OC)c1ccccc1CO/N=C(\C)C1=Cc2c(Cl)cccc2C1` has an inhibition (Pyricularia oryzae) of 100%, an inhibition [1] of 0% and an inhibition (Colletotrichum lagenaria) of 30%. It also gave an inhibition (Phytophthora infestans) of 100%, an inhibition (Blumeria graminis) of 85% and an inhibition (Botrytis cinerea) of 80%.
With `CNC(=O)/C(=N/OC)c1ccccc1CO/N=C(\C)C1=Cc2ccc(F)cc2C1` the inhibition (Pyricularia oryzae) was 100%, the inhibition [1] was 100% and the inhibition (Colletotrichum lagenaria) was 100%. It also gave an inhibition (Phytophthora infestans) of 100%, an inhibition (Blumeria graminis) of 100% and an inhibition (Botrytis cinerea) of 80%.
Work on `CO/N=C(/C(=O)OC)c1ccccc1COc1ccccc1C` [KRESOXIM-METHYL] yielded an inhibition (Pyricularia oryzae) of 100%, an inhibition [1] of 0% and an inhibition (Colletotrichum lagenaria) of 30%. It also gave an inhibition (Blumeria graminis) of 100% and an inhibition (Botrytis cinerea) of 100%.

— ChEMBL document CHEMBL3046858, “Synthesis and fungicidal activities of novel indene-substituted oxime ether strobilurins” (2008)
